Patent US20070299083A1, “6-Methoxy-8-[4-(1-(5-fluoro)-quinolin-8-yl-piperidin-4-yl)-piperazin-1-yl]-quinoline hydrochloric acid salts” (Wyeth, priority 2006, published 2007)

Assay: solubility in aqueous media
Format: physicochemical
Settings: even in the presence of surfactants

solubility: ~0.4 µg/mL
Structure (SMILES): COc1cc(N2CCN(C3CCN(c4ccc(F)c5cccnc45)CC3)CC2)c2ncccc2c1 [free base, 6-methoxy-8-[4-(1-(5-fluoro)-quinolin-8-yl-piperidin-4-yl)-piperazin-1-yl]-quinoline]
